Laboratory results: ChEMBL document CHEMBL1123199, “Synthesis and structure-activity relationships of naftifine-related allylamine antimycotics” (1986)
In brackets after ≈: the same amount, converted by molar mass.

Tests used:
Aspergillus fumigatus = test: Antifungal activity measured against Aspergillus fumigatus; format: functional
Candida parapsilosis = test: Antifungal activity against Candida parapsilosis.; format: functional; conditions: Lodderomyces parapsilosis
Epidermophyton floccosum = test: Antifungal activity against Epidermophyton floccosum.; format: functional
Cavia porcellus [1] = test: In vivo antifungal activity by topical treatment of guinea pig dermatophytosis caused by Trichophyton mentagrophytes at a dose of 0.1%; format: functional
Cavia porcellus [2] = test: In vivo antifungal activity by topical treatment of guinea pig dermatophytosis caused by Trichophyton mentagrophytes at a dose of 0.5%; format: functional
Cavia porcellus [3] = test: In vivo antifungal activity by topical treatment of guinea pig dermatophytosis caused by Trichophyton mentagrophytes at a dose of 2%; format: functional
Microsporum canis = test: Antifungal activity against Microsporum canis; format: functional
Sporothrix schenckii = test: Antifungal activity measured against Sporothrix schenck ii.; format: functional
Trichophyton benhamiae = test: Antifungal activity measured against Trichophyton mentagrophytes; format: functional, Arthroderma benhamiae
[4] = Antifungal activity against Trichophyton mentagrophytes.; format: functional, Arthroderma benhamiae; conditions: Trichophyton benhamiae

Row | SMILES | MIC (Aspergillus fumigatus) [µg/mL] | MIC (Candida parapsilosis) [µg/mL] | MIC (Epidermophyton floccosum) [µg/mL] | Activity (Cavia porcellus [1]) [%] | Activity (Cavia porcellus [2]) [%] | Activity (Cavia porcellus [3]) [%] | MIC (Microsporum canis) [µg/mL] | MIC (Sporothrix schenckii) [µg/mL] | MIC (Trichophyton benhamiae) [µg/mL] | MIC [4] [µg/mL]
1 | CCCCCOC(=O)/C=C/CN(C)Cc1cccc2ccccc12 | 50 (≈ 154 µM) | 25 (≈ 76.8 µM) | < 1.6 | 0 | 0 | 10 | < 1.6 | < 1.6 | < 1.6 | 
2 | CN(C/C=C/c1ccc(Cl)cc1)Cc1cccc2ccccc12 | > 100 | 100 (≈ 311 µM) | 0.4 (≈ 1.24 µM) | 0 | 25 | 44 | 0.4 (≈ 1.24 µM) | 3.1 (≈ 9.63 µM) | 0.2 (≈ 0.621 µM) | 
3 | COc1ccc2c(CN(C)C/C=C/c3ccccc3)cccc2c1 | > 100 | > 100 | 12.5 (≈ 39.4 µM) |  |  |  | 12.5 (≈ 39.4 µM) | 25 (≈ 78.8 µM) |  | 1.6 (≈ 5.04 µM)
4 | CN(C/C=C/c1ccccc1)Cc1cn(C)c2ccccc12 | > 100 | 25 (≈ 86.1 µM) | ≤ 1.6 | 0 | 0 | 88 | ≤ 1.6 | ≤ 1.6 | ≤ 1.6 | 
5 | CN(C/C=C/c1cccs1)Cc1cccc2ccccc12 | 100 (≈ 341 µM) | 6.2 (≈ 21.1 µM) | 0.2 (≈ 0.682 µM) | 13 | 56 | 96 | 0.2 (≈ 0.682 µM) | 3.1 (≈ 10.6 µM) | 0.1 (≈ 0.341 µM) | 
6 | CN(C/C=C/C1=CCCC1)Cc1cccc2ccccc12 | 50 (≈ 180 µM) | 6.2 (≈ 22.3 µM) | 0.2 (≈ 0.721 µM) | 30 | 91 | 100 | 0.2 (≈ 0.721 µM) | 3.1 (≈ 11.2 µM) | 0.1 (≈ 0.36 µM) | 
7 | CN(C/C=C/C1=CCCCCC1)Cc1cccc2ccccc12 | 25 (≈ 81.8 µM) | 1.6 (≈ 5.24 µM) | 0.1 (≈ 0.327 µM) | 29 | 85 | 100 | 0.05 (≈ 0.164 µM) | 0.8 (≈ 2.62 µM) | 0.05 (≈ 0.164 µM) | 
8 | CN(C/C=C/c1ccccc1)Cc1csc2ccccc12 | 25 (≈ 85.2 µM) | 3.1 (≈ 10.6 µM) | 0.2 (≈ 0.682 µM) | 0 | 54 | 97 | 0.2 (≈ 0.682 µM) | 1.6 (≈ 5.45 µM) | 0.1 (≈ 0.341 µM) | 
9 | CN(C/C=C/c1ccsc1)Cc1cccc2ccccc12 | 50 (≈ 170 µM) | 6.2 (≈ 21.1 µM) | 0.1 (≈ 0.341 µM) | 7 | 47 | 100 | 0.2 (≈ 0.682 µM) | 3.1 (≈ 10.6 µM) | 0.1 (≈ 0.341 µM) | 
10 | Cc1ccc(/C=C/CN(C)Cc2cccc3ccccc23)cc1 | > 100 | 50 (≈ 166 µM) | < 1.6 | 7 | 22 | 50 | < 1.6 | 12.5 (≈ 41.5 µM) | < 1.6 | 
11 | CN(C/C=C/c1ccccc1)Cc1cccc2c1CCCC2 | > 100 | 50 (≈ 172 µM) | 0.8 (≈ 2.75 µM) | 0 | 22 | 50 | 0.8 (≈ 2.75 µM) | 3.1 (≈ 10.6 µM) | 0.4 (≈ 1.37 µM) | 
12 | CCOC(=O)/C=C/CN(C)Cc1cccc2ccccc12 | > 100 | > 100 | 3.1 (≈ 10.9 µM) | 0 | 0 | 16 | 6.25 (≈ 22.1 µM) | 12.5 (≈ 44.1 µM) | < 1.6 | 
13 | CN(C/C=C/c1ccccn1)Cc1cccc2ccccc12 | > 100 | > 100 | 12.5 (≈ 43.3 µM) | 0 | 0 | 7 | 12.5 (≈ 43.3 µM) | 100 (≈ 347 µM) | < 1.6 | 
14 | CN(C/C=C/c1ccc(F)cc1)Cc1cccc2ccccc12 | 25 (≈ 81.9 µM) | 3.1 (≈ 10.2 µM) | 0.1 (≈ 0.327 µM) | 21 | 82 | 100 | 0.2 (≈ 0.655 µM) | 1.6 (≈ 5.24 µM) | 0.1 (≈ 0.327 µM) | 
15 | CN(C/C=C/c1ccccc1)CC1=CCOc2ccccc21 | 50 (≈ 172 µM) | 6.2 (≈ 21.3 µM) | 0.4 (≈ 1.37 µM) |  |  | 82 | 0.4 (≈ 1.37 µM) | 6.2 (≈ 21.3 µM) | 0.2 (≈ 0.686 µM) | 
16 | CCN(C/C=C/c1ccccc1)Cc1cccc2ccccc12 | 100 (≈ 332 µM) | 12.5 (≈ 41.5 µM) | < 1.6 | 19 | 25 | 81 | < 1.6 | 12.5 (≈ 41.5 µM) | < 1.6 | 
17 | CN(C/C=C/c1ccccc1)Cc1c2ccccc2cc2ccccc12 | 100 (≈ 296 µM) | 100 (≈ 296 µM) | 0.4 (≈ 1.19 µM) | 0 | 0 | 38 | 0.8 (≈ 2.37 µM) | 50 (≈ 148 µM) | 0.8 (≈ 2.37 µM) | 
18 | CN(C/C=C/C1=CCCCC1)Cc1cccc2ccccc12 | 12.5 (≈ 42.9 µM) | 0.8 (≈ 2.75 µM) | 0.1 (≈ 0.343 µM) | 41 | 97 | 100 | 0.1 (≈ 0.343 µM) | 0.8 (≈ 2.75 µM) | 0.05 (≈ 0.172 µM) | 
19 | CN(C/C=C\c1ccccc1)Cc1cccc2ccccc12 | 25 (≈ 87 µM) | 3.1 (≈ 10.8 µM) | 0.2 (≈ 0.696 µM) | 34 | 47 | 100 | 0.2 (≈ 0.696 µM) | 3.1 (≈ 10.8 µM) | 0.1 (≈ 0.348 µM) | 
20 | CN(C/C=C/c1ccccc1)Cc1ccnc2ccccc12 | > 100 | 2.5 (≈ 8.67 µM) | 1.6 (≈ 5.55 µM) | 0 | 0 | 3 | 1.6 (≈ 5.55 µM) | 12.5 (≈ 43.3 µM) | 1.6 (≈ 5.55 µM) | 
21 | CN(C/C=C/c1ccccc1)C(=O)c1cccc2ccccc12 | 12.5 (≈ 41.5 µM) | > 100 | ≤ 1.6 | 0 | 0 | 60 | ≤ 1.6 | 25 (≈ 82.9 µM) | ≤ 1.6 | 
22 | CN(C/C=C/c1ccccc1)Cc1cccc2sccc12 | 12.5 (≈ 42.6 µM) | 1.6 (≈ 5.45 µM) | 0.1 (≈ 0.341 µM) |  | 75 | 100 | 0.1 (≈ 0.341 µM) | 1.6 (≈ 5.45 µM) | 0.1 (≈ 0.341 µM) | 
23 | C=CCN(C/C=C/c1ccccc1)Cc1cccc2ccccc12 | 100 (≈ 319 µM) | > 100 | 3.1 (≈ 9.89 µM) |  |  |  | < 1.6 | 6.25 (≈ 19.9 µM) | < 1.6 | 
24 | CN(C/C=C/c1ccncc1)Cc1cccc2ccccc12 | > 100 | > 100 | 25 (≈ 86.7 µM) |  |  |  | 25 (≈ 86.7 µM) | 100 (≈ 347 µM) | < 1.6 | 
25 | CC(c1cccc2ccccc12)N(C)C/C=C/c1ccccc1 (centres undefined) | 50 (≈ 166 µM) | 3.1 (≈ 10.3 µM) | 0.2 (≈ 0.663 µM) | 15 | 75 | 100 | 0.4 (≈ 1.33 µM) | 3.1 (≈ 10.3 µM) | 0.1 (≈ 0.332 µM) | 
26 | CN(CC(=O)c1ccccc1)Cc1cccc2ccccc12 | > 100 | > 100 | 12.5 (≈ 43.2 µM) |  |  |  | 6.2 (≈ 21.4 µM) | > 100 | 3.1 (≈ 10.7 µM) | 
